The values that follow come from US11123279B2, “Cosmetic composition and the use thereof for regulating skin quality” (priority 2016, dated 2021).

Values after ≈ are worked out from the molar mass of the structure shown. Where two headings read alike, the source gives them in different places.

Data set [1] can be described thus: Viscosity measurement of creams. It counts as physicochemical. The following applies: 0.5 wt % in base cream of 25,000 mPa·s. As for the experimental part: Rheological properties of the creams with different cosmetic compositions were evaluated based on viscosity measurements. The individually tested samples were dissolved in a base cream (control) with a viscosity of 25,000 mPa·s. The cream base used for blending the active ingredients contained the ingredients as follows: Aqua, Butyrospermum parkii, caprylic/capric triglyceride, C12-15 alkyl benzoate, cetearyl isononanoate, cyclomethicone, butylene glycol, hydroxyethyl acrylate, sodium dimethyl taurate copolymer, Aloe barbadensis leaf juice. The cream base was white in colour, with a pH ranges between 4.5 and 5.5.

The test system of data set [2] is B16 melanocyte cells. As for the experimental part:
Cytotoxicity activities to determine cell viability were obtained as follows. B16 melanocyte cells were plated in a 24 well-plate one day before the actual assay. Fresh DMEM (with phenol red) containing 10% FBS was added to dilute the cells to an appropriate density, 0.025×10^6 cells for a 24 well-plate. 1 ml of the DMEM with 10% FBS was added to each well. […] The well-plate with treated cells were then left in the incubator at 37° C., 5% CO2 for approximately 16 hours overnight. The media was removed and 1 ml of PBS solution was added into each well to wash and remove the colour of the phenol red in the DMEM. Then, 1 ml of fresh PBS was added into each individual well. 15 μl of the prepared Resazurin stock solution was added (8 μg/ml) into each well containing the compounds. The Resazurin stock solution was prepared by adding 800 μg of Resazurin sodium salt in 10 ml of PBS (pH 7.4) to make a concentration of 80 μg/ml, which was further diluted by adding 0.1 ml of the 80 μg/ml solution to 0.9 ml of PBS to make 8 μg/ml of stock solution. The well-plates were incubated at 37° C. for 2 hours. The plate was immediately read, after 2 hours, using a BioTek Synergy HTX multi-mode reader at an emission and excitation wavelength of 600 nm and 528 nm respectively, with a gain of 35. The results were automatically recorded in an excel spreadsheet.

Data set [3] has as its system B16 melanocyte cells. Description: B16 cell melanogenesis inhibition assay. It counts as cell-based.
The subject of data set [4] is arm skin of Southeast Asian women. The following applies: in vivo. From the text:
The cream base used for blending the active ingredients contained the ingredients as follows: Aqua, Butyrospermum parkii, caprylic/capric triglyceride, C12-15 alkyl benzoate, cetearyl isononanoate, cyclomethicone, butylene glycol, hydroxyethyl acrylate, sodium dimethyl taurate copolymer, Aloe barbadensis leaf juice.

A further data set relates to Pseudomonas aeruginosa. The data set is described as follows: Antimicrobial activity, resistance of cream to microbial contamination. The following applies: tested individually at 0.05%. It counts as cell-based.
The subject of the next data set is Indian and Chinese skins. Description: Skin tone (a*, b*) and general skin quality observation (Examples 5 and 6). The class given is in vivo, human. The settings on record: Chinese skin and especially Indian skin. As for the experimental part:
[…]. The a* (rosy-red tone) and b* (yellow tone) components of the skin tone were monitored.
Over the 28-day period, the a* (rosy-red tone) component of Indian skin increased, and the b* (yellow tone) component of Indian and Chinese skins decreased. […] Before starting the study, all subjects' melanin index, L*a*b* and ITA value were measured at the tested site using Mexameter MX18 and Courage+Khazaka (CK) Colorimeter CL 400. Photos and instrument measurements were taken at the start of the testing (Day 0), during the testing (D2, D5, D7, D9, D12) and after the testing (D14, D21 and D28). […] Each subject applied 5 products on the left arm. Subjects wore an arm sleeve over part of the right arm for the occluded site, so as to provide 2 negative controls, one occluded from light and UV-radiation (right arm) and one covered under fabric (left arm) so as to understand the effect of melanogenesis even when no light is passing through. The tested areas were evaluated on their skin melanin index, L*a*b* and ITA after D2, D5, D7, D9, D12, D14, D21 and D28 of application using Mexameter MX 18 and CK Colorimeter CL400.
As part of the same experiment above, general skin quality effects were also observed.

Data set [5] relates to arm skin of Southeast Asian women. Description: Subject self-assessment questionnaire and preference in the skin lightening study (Example 1). The class given is in vivo, human. The settings on record: by day 14 of the trial. The text has this: Table V illustrates the ranking of the various compositions from best to worst based on user satisfaction measurements. The questionnaire was formulated to include the questions such as: 1) what were your first impressions after application of the various compositions? 2) How quickly do you expect to see a lightening effect? 3) Are you satisfied with the quality of skin lightening achieved? 4) How many days after the first application of the various compositions did you observe a lightening effect? 5) are you satisfied with the quality of skin lightening achieved? 6) How many days after the first application of the test product did you observe a lightening effect?

Setting [6] is: Melanocyte, 72 h, B16 cultured melanocyte cells, 3 days incubation, melanin OD at 480 nm; read-out: IC50, melanogenesis inhibition.
Where [7] appears, read: B16 cultured melanocyte cells, 3 days incubation, melanin OD at 480 nm.
[8] abbreviates: Melanocyte, 72 h; read-out: IC50, melanogenesis inhibition.

For orientation: IC50 means the concentration needed to halve the response being measured.

`O=C1O[C@H]([C@@H](O)CO)C(O)=C1O[C@H]1O[C@H](CO)[C@@H](O)[C@H](O)[C@H]1O` [ascorbic acid-2-glucoside (AA2G), ascorbic acid-2-glucoside]: the “viscosity of the cream” value in data set [1] is given as 26,000 mPa·s.

`O=C1NS(=O)(=O)c2ccccc21` [Saccharin, 2H-1lamda 6,2-benzothiazol-1,1,3-trione]: the “cytotoxic activities on B16 cells” value with B16 melanocyte cells [2] is recorded as “no real cytotoxic activities”.

In the case of `O=c1[nH]cnc2[nH]cnc12` [Hypoxanthine], in the data set on B16 melanocyte cells [3] (setting [6]), the IC50 was 70 µg/mL (≈ 514 µM).

With `Cc1occc(=O)c1O` [Maltol, 3-hydroxy-2-methyl-4H-pyran-4-one], the “cytotoxic activities on B16 cells” value in the data set on B16 melanocyte cells [2] is recorded as “no real cytotoxic activities”. For the same compound, the “cytotoxic activities on intact human skin” value in data set [4] is “no real cytotoxic activities”. In addition, the “inhibition of the growth of P. aeruginosa” value with Pseudomonas aeruginosa is recorded as “completely inhibited”. In addition, the IC50 with B16 melanocyte cells [3] (setting [6]) turned out to be 65 µg/mL (≈ 515 µM).

Regarding `O=c1cc[nH]c(=O)[nH]1` [Uracil], the IC50 in the data set with B16 melanocyte cells [3] (setting [6]) was 143 µg/mL (≈ 1280 µM).

For the compound `O=c1cc(CO)occ1O` [Kojic acid (Standard), Kojic acid, reference compound], the IC50 in the data set on B16 melanocyte cells [3] (setting [6]) stood at 51 µg/mL (≈ 359 µM).

For `O=C(O)c1cc(O)[nH]c(=O)c1` [Citrazinic Acid, Citrazinic acid], the “IC50, melanogenesis inhibition” value in the data set on B16 melanocyte cells [3] (setting [7]) was determined as 77 µg/mL (≈ 496 µM). In the data set with B16 melanocyte cells [3] (setting [6]), the IC50 was in the range of 59 to 262 µg/mL (≈ 380 to 1690 µM).

As to `O=c1[nH]c2ccccc2c(=O)o1` [Isatoic Anhydride], the IC50 in the data set on B16 melanocyte cells [3] (setting [8]) was 132 µg/mL (≈ 809 µM).

On to `CC1=CC(=O)[N-]S(=O)(=O)O1.[K+]` [Acesulphame K (ASK), Acesulphame K (Potassium Acesulphame)], for which the IC50 in the data set on B16 melanocyte cells [3] (Melanocyte, 72 h, read-out: IC50, melanogenesis inhibition) stood at 58 µg/mL.

Regarding `O=C1O[C@H]([C@H](O)CO)C(O)=C1O` [Erythorbic Acid], the IC50 in the data set on B16 melanocyte cells [3] (setting [6]) is 73 µg/mL (≈ 414 µM).

For the compound `CC(=O)Oc1ccccc1C(=O)O` [Acetylsalicylic Acid, Acetyl Salicylic Acid], the “IC50, melanogenesis inhibition” value in the data set with B16 melanocyte cells [3] (setting [7]) turned out to be 262 µg/mL (≈ 1450 µM).

For `CCc1occc(=O)c1O` [Ethyl Maltol], in the data set on B16 melanocyte cells [2] (mouse), the “concentrations resulting in cell toxicity” value is recorded as “greater than 100 μM”. Further, the “IC50, melanogenesis inhibition” value in the data set with B16 melanocyte cells [3] (setting [7]) worked out at 59 µg/mL (≈ 421 µM). Moreover, the IC50 in the data set on B16 melanocyte cells [3] (setting [6]) lay in the range of 59 to 262 µg/mL (≈ 421 to 1870 µM).

As to `NC(=O)c1cccnc1` [niacinamide], the “effects on a* and b* skin tone compared with the maltol/saccharin cream” value with Indian and Chinese skins was “diametrically opposite effects”. In addition, the “subjects who observed and reported lightening of their skin” value in data set [5] is given as 82%.

As for `O=C1NC(=O)c2ccccc21` [Phthalimide], in the data set on B16 melanocyte cells [3] (setting [6]), the IC50 came out at 89 µg/mL (≈ 605 µM).

`Nc1nc2[nH]cnc2c(=O)[nH]1` [Guanine]: the IC50 in the data set with B16 melanocyte cells [3] (setting [8]) amounted to 56 µg/mL (≈ 371 µM).

Turning to “Dehydroacetic Acid [Dehydroacetic Acid (DHAA)]”, in the data set on B16 melanocyte cells [3], the “IC50, melanogenesis inhibition” value was 73 µg/mL.

For the compound `Nc1nc2c(ncn2[C@@H]2O[C@H](COP(=O)(O)O)[C@@H](O)[C@H]2O)c(=O)[nH]1` [Guanosine Monophosphate, Guanosine Mono- phosphate], in the data set with B16 melanocyte cells [3] (setting [6]), the IC50 turned out to be 70 µg/mL.

`Cn1cnc2c1c(=O)[nH]c(=O)n2C` [Theobromine]: the IC50 with B16 melanocyte cells [3] (setting [6]) turned out to be 37 µg/mL (≈ 205 µM).
